As usually defined, the T/C is the ratio of treated to control.

This note sets out measurements from ChEMBL document CHEMBL1158914, “Antitumor agents, 115. Seselidiol, a new cytotoxic polyacetylene from Seseli mairei” (1990).

What all share (assay type): functional
For one experiment, the system named is KB. The experiment in a line: Cytotoxicity against human KB cells. The conditions noted are these: read-out: ED50 (the source's name).
Another experiment relates to HCT-8. The experiment in a line: Cytotoxicity against human HCT8 cells. Conditions: read-out: ED50 (the source's name).
Experiment [1] deals with P388. Description: Cytotoxicity against mouse P388 cells. The conditions noted are these: read-out: ED50 (the source's name).
The subject of the next experiment is L1210. Description: Cytotoxicity against mouse L1210 cells. The conditions noted are these: read-out: ED50 (the source's name).
Experiment [2] relates to P388. Description: Antileukemic activity against mouse P388 cells xenografted in mouse at 3 mg/kg after 3 days relative to control.

Converted amounts (≈) assume the structure as drawn.

Turning to `C=CC(=O)C#CC#C/C=C\C(=O)CCCCCCC`, the EC50 was over 10 µg/mL in the experiment with KB, 3.7 µg/mL (≈ 14.4 µM) in the experiment on HCT-8, over 10 µg/mL in the experiment with P388 [1] and over 10 µg/mL with L1210.

As to `CCC[C@@H](O)/C=C/C=C/C=C/C#CC#CCCCO` [CICUTOXIN], in the experiment with KB, the EC50 was determined as 2 µg/mL (≈ 7.74 µM). The same molecule registered a T/C in the experiment on P388 [2] of 165%.

`COc1cccc2c1C(=O)c1c(O)c3c(c(O)c1C2=O)C[C@@](O)(C(=O)CO)C[C@@H]3O[C@H]1C[C@H](N)[C@H](O)[C@H](C)O1.Cl` [DOXORUBICIN HYDROCHLORIDE]: the EC50 in the experiment on HCT-8 was 0.3 µg/mL.

`COc1cc([C@@H]2c3cc4c(cc3[C@@H](O[C@@H]3O[C@@H]5CO[C@@H](C)O[C@H]5[C@H](O)[C@H]3O)[C@H]3COC(=O)[C@H]23)OCO4)cc(OC)c1O` [ETOPOSIDE]: the EC50 is 0.1 µg/mL (≈ 0.17 µM) with KB, 2.6 µg/mL (≈ 4.42 µM) in the experiment on P388 [1] and 1.6 µg/mL (≈ 2.72 µM) in the experiment with L1210.

As for `C=CC(C#CC#C/C=C\C(CCCCCCC)OC(C)=O)OC(C)=O` (stereo not drawn) [SESELIDIOL DIACETATE], the EC50 with KB stood at 4 µg/mL; with HCT-8, 7.8 µg/mL; with P388 [1], 5.2 µg/mL; with L1210, 5.5 µg/mL.

With `C=CC(O)C#CC#C/C=C\C(O)CCCCCCC` (stereo not drawn) [SESELIDIOL], the EC50 in the experiment on KB amounted to 1 µg/mL (≈ 3.84 µM); with HCT-8, 10 µg/mL (≈ 38.4 µM); with P388 [1], 4.9 µg/mL (≈ 18.8 µM); in the experiment on L1210, 3.3 µg/mL (≈ 12.7 µM).
